Read-outs that look alike come from different tables or passages of the source.
Tested on: Angiotensin II (AII) vasopressor response
Assay: AII Challenge: antagonism of angiotensin II vasopressor response in conscious spontaneously hypertensive rats
Type: in vivo, rat (male okamoto-Aoki SHR)
Conditions: for inhibition in vivo at 3 mg/kg / inhibition in vivo at 1 mg/kg: Rattus norvegicus, iv; for inhibition in vivo at 3 mg/kg / Average Change / inhibition in vivo at 1 mg/kg: SHR n=2; for inhibition in vivo at 3 mg/kg: read-out: Inhibition; for Change: single SHR
Text: Conscious Male okamoto-Aoki SHR, 16-20 weeks old, weighing approximately 330 g are purchased from Charles River Labs (Wilmington, Mass.). Conscious rats are restrained in a supine position with elastic tape. The area at the base of the tail is locally anesthetized by subcutaneous infiltration with 2% procaine. […] The cannula is secured, heparinized (1,000 I.U./ml), sealed and the wound is closed. The animals are placed in plastic restraining cages in an upright position. The cannula is attached to a Statham P23Db pressure transducer, and pulsatile blood pressure is recorded to 10-15 minutes with a Gould Brush recorder. […] Angiotensin II (human sequence, Sigma Chem. Co., St. Louis, Mo.) of 0.05 and 0.1 ug/kg i.v. is injected into all rats (predosing response). Then a test compound, vehicle or a known angiotensin II antagonist is administered i.v., i.p. or orally to each set of rats. […] The vasopressor response of angiotensin II is measured for the increase in systolic blood pressure in mmHg.

[1] = 0.5 h, 3 mg/kg I.V., AII 0.05 mcg/kg IV, 30 min post dose
[2] = 0.5 h, 3 mg/kg I.V., AII 0.1 mcg/kg IV, 30 min post dose
[3] = 1 h, 3 mg/kg I.V., AII 0.05 mcg/kg IV, 60 min post dose
[4] = 1 h, 3 mg/kg I.V., AII 0.1 mcg/kg IV, 60 min post dose
[5] = 2 h, 3 mg/kg I.V., AII 0.05 mcg/kg IV, 120 min post dose
[6] = 2 h, 3 mg/kg I.V., AII 0.1 mcg/kg IV, 120 min post dose
[7] = 3 h, 3 mg/kg I.V., AII 0.05 mcg/kg IV, 180 min post dose
[8] = 3 h, 3 mg/kg I.V., AII 0.1 mcg/kg IV, 180 min post dose
[9] = 4 h, 3 mg/kg I.V., AII 0.05 mcg/kg IV, 240 min post dose
[10] = 4 h, 3 mg/kg I.V., AII 0.1 mcg/kg IV, 240 min post dose
[11] = 5 h, 3 mg/kg I.V., AII 0.05 mcg/kg IV, 300 min post dose
[12] = 5 h, 3 mg/kg I.V., AII 0.1 mcg/kg IV, 300 min post dose
[13] = […], 3 mg/kg I.V., AII 0.05 mcg/kg IV, 90 min post dose
[14] = […], 3 mg/kg I.V., AII 0.1 mcg/kg IV, 90 min post dose
[15] = 3 mg/kg I.V., AII 0.05 mcg/kg IV, 30 min post dose
[16] = 3 mg/kg I.V., AII 0.05 mcg/kg IV, 60 min post dose
[17] = 3 mg/kg I.V., AII 0.05 mcg/kg IV, 90 min post dose
[18] = 3 mg/kg I.V., AII 0.05 mcg/kg IV, 120 min post dose
[19] = 3 mg/kg I.V., AII 0.05 mcg/kg IV, 180 min post dose
[20] = 3 mg/kg I.V., AII 0.05 mcg/kg IV, 240 min post dose
[21] = 3 mg/kg I.V., AII 0.1 mcg/kg IV, 30 min post dose
[22] = 3 mg/kg I.V., AII 0.1 mcg/kg IV, 60 min post dose
[23] = 3 mg/kg I.V., AII 0.1 mcg/kg IV, 90 min post dose
[24] = 3 mg/kg I.V., AII 0.1 mcg/kg IV, 120 min post dose
[25] = 3 mg/kg I.V., AII 0.1 mcg/kg IV, 180 min post dose
[26] = 3 mg/kg I.V., AII 0.1 mcg/kg IV, 240 min post dose
[27] = 3 mg/kg I.V., AII 0.1 mcg/kg IV, 300 min post dose
[28] = 3 mg/kg I.V., AII 0.05 mcg/kg IV, 300 min post dose
[29] = 1 mg/kg I.V., AII 0.05 mcg/kg IV, 60 min post dose
[30] = 1 mg/kg I.V., AII 0.05 mcg/kg IV, 300 min post dose

`CCCCc1nc2ccc([C@H]3[C@@H]4CCCCCC[C@@H]4ON3C)cc2c(=O)n1Cc1ccc(-c2ccccc2-c2nnn[nH]2)cc1` (relative stereo) [Example 52] gave an inhibition in vivo at 3 mg/kg [1] of 89%, an inhibition in vivo at 3 mg/kg [2] of 76% and an inhibition in vivo at 3 mg/kg [3] of 80%. It also gave an inhibition in vivo at 3 mg/kg [4] of 59%, an inhibition in vivo at 3 mg/kg [5] of 63% and an inhibition in vivo at 3 mg/kg [6] of 59%. It also gave an inhibition in vivo at 3 mg/kg [7] of 20%, an inhibition in vivo at 3 mg/kg [8] of 12% and an inhibition in vivo at 3 mg/kg [9] of 27%. For the same molecule, the inhibition in vivo at 3 mg/kg [10] was 47%, the inhibition in vivo at 3 mg/kg [11] was 33% and the inhibition in vivo at 3 mg/kg [12] was 15%. For the same molecule, the inhibition in vivo at 3 mg/kg [13] was 24%, the inhibition in vivo at 3 mg/kg [14] was 53% and the “Average Change” value [15] was 4 mmHg. For the same molecule, the “Average Change” value [16] was 7.5 mmHg, the “Average Change” value [17] was 28.5 mmHg and the “Average Change” value [18] was 14 mmHg. The “Average Change” value [19] was 30 mmHg, the “Average Change” value [20] was 27.5 mmHg and the “Average Change” value [21] was 10 mmHg. For the same molecule, the “Average Change” value [22] was 17.5 mmHg, the “Average Change” value [23] was 20 mmHg and the “Average Change” value [24] was 17.5 mmHg. For the same molecule, the “Average Change” value [25] was 37.5 mmHg, the “Average Change” value [26] was 22.5 mmHg and the “Average Change” value [27] was 36 mmHg. It also gave a Change [19] of 30 mmHg, a Change [28] of 25 mmHg and a Change [21] of 10 mmHg.
With `CCCCc1nc2ccc(C3CC4CCCCN3O4)cc2c(=O)n1Cc1ccc(-c2ccccc2-c2nnn[nH]2)cc1` (stereo not drawn) [Example 18, cis-2-Butyl-6-(9-oxa-1-azabicyclo[4.2.1]non-8-yl)-3-[[2'-(1H-tetrazol-5-yl)[1,1'-biphenyl]-4-yl-methyl-4(3H)-quinazolinone] the inhibition in vivo at 3 mg/kg [1] was 68%, the inhibition in vivo at 3 mg/kg [2] was 75% and the inhibition in vivo at 3 mg/kg [3] was 53%. The inhibition in vivo at 3 mg/kg [4] was 60%, the inhibition in vivo at 3 mg/kg [5] was 5% and the inhibition in vivo at 3 mg/kg [6] was 0%. It also gave an inhibition in vivo at 3 mg/kg [7] of 58%, an inhibition in vivo at 3 mg/kg [8] of 50% and an inhibition in vivo at 3 mg/kg [9] of 63%. It also gave an inhibition in vivo at 3 mg/kg [10] of 10%, an inhibition in vivo at 3 mg/kg [11] of 11% and an inhibition in vivo at 3 mg/kg [12] of 45%. For the same molecule, the inhibition in vivo at 3 mg/kg [13] was 47%, the inhibition in vivo at 3 mg/kg [14] was 45% and the “Average Change” value [15] was 15 mmHg. For the same molecule, the “Average Change” value [16] was 22.5 mmHg, the “Average Change” value [17] was 25 mmHg and the “Average Change” value [18] was 45 mmHg. For the same molecule, the “Average Change” value [19] was 20 mmHg, the “Average Change” value [20] was 17.5 mmHg and the “Average Change” value [28] was 42.5 mmHg. The “Average Change” value [21] was 12.5 mmHg, the “Average Change” value [22] was 20 mmHg and the “Average Change” value [23] was 27.5 mmHg. The “Average Change” value [24] was 50 mmHg, the “Average Change” value [25] was 25 mmHg and the “Average Change” value [26] was 45 mmHg. The “Average Change” value [27] was 27.5 mmHg.
`CCCCc1nc2ccc(C3C4CCCN3OC4)cc2c(=O)n1Cc1ccc(-c2ccccc2-c2nnn[nH]2)cc1` (stereo not shown) [Example 21] showed an inhibition in vivo at 1 mg/kg (0.5 h, 1 mg/kg I.V., AII 0.05 mcg/kg IV, 30 min post dose) of 53%, an inhibition in vivo at 1 mg/kg (0.5 h, 1 mg/kg I.V., AII 0.1 mcg/kg IV, 30 min post dose) of 53% and an inhibition in vivo at 1 mg/kg (1 h, 1 mg/kg I.V., AII 0.05 mcg/kg IV, 60 min post dose) of 68%. The inhibition in vivo at 1 mg/kg (1 h, 1 mg/kg I.V., AII 0.1 mcg/kg IV, 60 min post dose) was 56%, the inhibition in vivo at 1 mg/kg (2 h, 1 mg/kg I.V., AII 0.05 mcg/kg IV, 120 min post dose) was 63% and the inhibition in vivo at 1 mg/kg (2 h, 1 mg/kg I.V., AII 0.1 mcg/kg IV, 120 min post dose) was 61%. It also gave an inhibition in vivo at 1 mg/kg (3 h, 1 mg/kg I.V., AII 0.05 mcg/kg IV, 180 min post dose) of 63%, an inhibition in vivo at 1 mg/kg (3 h, 1 mg/kg I.V., AII 0.1 mcg/kg IV, 180 min post dose) of 47% and an inhibition in vivo at 1 mg/kg (4 h, 1 mg/kg I.V., AII 0.05 mcg/kg IV, 240 min post dose) of 42%. For the same molecule, the inhibition in vivo at 1 mg/kg (4 h, 1 mg/kg I.V., AII 0.1 mcg/kg IV, 240 min post dose) was 61%, the inhibition in vivo at 1 mg/kg (5 h, 1 mg/kg I.V., AII 0.05 mcg/kg IV, 300 min post dose) was 37% and the inhibition in vivo at 1 mg/kg (5 h, 1 mg/kg I.V., AII 0.1 mcg/kg IV, 300 min post dose) was 34%. For the same molecule, the inhibition in vivo at 1 mg/kg ([…], 1 mg/kg I.V., AII 0.05 mcg/kg IV, 90 min post dose) was 63%, the inhibition in vivo at 1 mg/kg ([…], 1 mg/kg I.V., AII 0.1 mcg/kg IV, 90 min post dose) was 52% and the “Average Change” value (1 mg/kg I.V., AII 0.05 mcg/kg IV, 30 min post dose) was 22.5 mmHg. For the same molecule, the “Average Change” value [29] was 15 mmHg, the “Average Change” value (1 mg/kg I.V., AII 0.05 mcg/kg IV, 90 min post dose) was 17.5 mmHg and the “Average Change” value (1 mg/kg I.V., AII 0.05 mcg/kg IV, 120 min post dose) was 17.5 mmHg. For the same molecule, the “Average Change” value (1 mg/kg I.V., AII 0.05 mcg/kg IV, 180 min post dose) was 17.5 mmHg, the “Average Change” value (1 mg/kg I.V., AII 0.05 mcg/kg IV, 240 min post dose) was 27.5 mmHg and the “Average Change” value [30] was 30 mmHg. The “Average Change” value (1 mg/kg I.V., AII 0.1 mcg/kg IV, 30 min post dose) was 27 mmHg, the “Average Change” value (1 mg/kg I.V., AII 0.1 mcg/kg IV, 60 min post dose) was 25 mmHg and the “Average Change” value (1 mg/kg I.V., AII 0.1 mcg/kg IV, 90 min post dose) was 27.5 mmHg. For the same molecule, the “Average Change” value (1 mg/kg I.V., AII 0.1 mcg/kg IV, 120 min post dose) was 22.5 mmHg, the “Average Change” value (1 mg/kg I.V., AII 0.1 mcg/kg IV, 180 min post dose) was 30 mmHg and the “Average Change” value (1 mg/kg I.V., AII 0.1 mcg/kg IV, 240 min post dose) was 22.5 mmHg. The “Average Change” value (1 mg/kg I.V., AII 0.1 mcg/kg IV, 300 min post dose) was 37.5 mmHg, the Change [29] was 15 mmHg and the Change [30] was 30 mmHg.

Source: patent US5294611A, “Angiotensin II receptor blocking 2,3,6 substituted quinazolinones” (American Cyanamid Company, priority 1993, dated 1994)
